Measured values taken from US10272056B2, “Treatment for mitochondrial diseases” (The George Washington University a Congressionally …, priority 2015, dated 2019).

Tests used:
[1] = test system: E17.5 hippocampal neurons; assay: NaBt dose-dependent acetylation of nuclear proteins in neurons; assay type: cell-based; conditions: E17.5 hippocampal neurons at 1DIV
Source text: FIG. 4A-4E are images from microscopy and graphs showing NaBt dose-dependent acetylation and cellular toxicity in PC12-ND6 cells and embryonic E17.5 hippocampal neurons. (A) Confocal micrographs of PC12-ND6 cells (referred to as ND6) grown in the absence or presence of NaBt for three days and labeled with an anti-acetylated Lys antibody (AcLys; green). Scale bar represents 10 μm. […] Results are expressed as relative fluorescence intensity±S.D. (n=250 cells per NaBt concentration; * p=0.0001). (C) Effect of NaBt on PC12-ND6 cell viability. […] Mean±SEM (n=250 cells for each experimental condition; * p=0.0001). (D) Confocal micrographs of NaBt dose-dependent acetylation in E17.5 hippocampal neurons (AcLys; green). Scale bar represents 10 μm.
Sodium butyrate increases protein acetylation in a dose-dependent manner without inducing cellular toxicity. A dose response analysis was performed to determine the optimal concentration of sodium butyrate (NaBt) for inducing maximal acetylation levels with minimal cellular toxicity. PC12-ND6 cells were treated with different concentrations of NaBt (2 mM, 5 mM, and 10 mM) for three days before assessing the degree of acetylated lysine residues by immunocytochemistry and cell viability by live-cell confocal microscopy using the Nuclear-ID™ stain.

[2] = test system: neuronal cells; assay: Electron microscopy of mitochondria; assay type: cell-based; conditions: NaBt-treated vs control cells
Procedure: FIG. 9A-9C are graphs and images from microscopy showing that NaBt enhances mitochondrial bioenergetics. (A) Flow cytometric analysis of Δψm; *p<0.001. (B) ATP levels in live cells using a Mg^2+-based assay; *p<0.001. (C) Electron microscopy of mitochondria in control and NaBt-treated cells; scale bar=200 nm.
NaBt increases mitochondrial membrane potential (Δψm) and ATP levels. The MTR-based data raised the question: could NaBt also enhance mitochondrial bioenergetics? Δψm was assessed by live cell confocal microscopy and flow cytometry using the TMRM dye, which accumulates in the mitochondrial matrix in a Δψm-dependent fashion. A 1.5-fold increase in Δψm in NaBt-treated cells was observed (FIG. 9A). To test whether enhanced Δψm led to increased ATP output, ATP levels were monitored using the live cell Mg^2+-based ATP assay, which is compatible with the TMRM dye, allowing simultaneous recordings. A 1.6-fold increase in ATP levels in NaBt-treated cells was observed (FIG. 9B), in line with the MTR- and TMRM-based findings and the elongated mitochondrial morphology.

[3] = test system: MELAS fibroblasts; assay: Mitochondrial mass, morphology and networking (MTG live cell confocal analysis); assay type: cell-based, human; conditions: three-day exposure; NaBt 2.5 mM, TBN 1.5 mM, AN9 300 μM
Source text: FIG. 17A-17C are images from microscopy and graphs showing that butyrates rescue the mitochondrial phenotype in MELAS fibroblasts. (A) Confocal analysis of healthy and MELAS fibroblasts treated as indicated and labeled with the MTG dye; scale bar=10 (B) Analysis of the mitochondrial mass; n=3 (60 cells per experiment; ^‡p<0.05, unpaired T-test *p<0.05, paired T-test). (C) Analysis of Δψm (^‡p<0.05, unpaired T-test; *p<0.05, paired T-test).
(§1) Butyrates rescue the mitochondrial mass, morphology, networking, membrane potential, and cellular ATP levels in MELAS fibroblasts. Skin fibroblasts from two MELAS patients and from a healthy subject as a control were used. Dose-dependent analyses of butyrates to determine their best concentrations for eliciting an optimal mitochondrial response without cellular toxicity was performed. Healthy and MELAS fibroblasts were treated with PBS, NaBt (2.5 mM), TBN (1.5 mM), or AN9 (300 μM) for three days before labeling with the MTG dye for live cell confocal analysis.
as §1, with “networking, and” for “networking,”, “potential” for “potential, and cellular ATP levels”, “butyrates was performed” for “butyrates”, “toxicity.” for “toxicity was performed.”

[4] = test system: MELAS fibroblasts; assay: Morphometric analysis of mitochondrial connectivity (Image J); assay type: cell-based, human; conditions: Image J analysis of MTG-labeled fibroblasts
Procedure: FIG. 18 is a graph showing that butyrate and its derivatives rescue the mitochondrial dynamics and connectivity in MELAS fibroblasts.
as §1, with “networking, and” for “networking,”, “potential” for “potential, and cellular ATP levels”, “butyrates was performed” for “butyrates”, “toxicity.” for “toxicity was performed.”

[5] = test system: MELAS fibroblasts; assay: Affymetrix genome-wide microarray analysis; assay type: cell-based, human
Source text: An embodiment of the novel pharmacological approach described herein uses butyrates to promote nuclear and mitochondrial metabolic reprogramming by boosting mitochondrial biogenesis and maximizing residual ATP output. […] Thus, the data validate a pharmaco-epigenomic approach and establish proof-of-principle. It was hypothesized that butyrates can augment the functional mitochondrial mass in skin fibroblasts from 20 MELAS patients. Fibroblasts from this number of patients, each with different nuclear backgrounds and heteroplasmic loads, will ensure the findings extend beyond a case study into a statistically sound and broadly applicable report. It will be tested whether butyrates: (Aim 1) induce favorable mitochondrial biogenesis, thereby shifting heteroplasmy toward healthy mitochondria; and (Aim 2) maximize ATP output via optimization of OXPHOS activity and a metabolic shift toward fatty acid beta oxidation. It is anticipated to identify the most promising butyrate candidate for alleviating the symptoms of the MELAS disease. The proposed study will set the stage for future clinical studies with the Children's National Medical Center and the North American Mitochondrial Disease Consortium, in concordance with the PAR-13-023 issued by the NINDS Office of Translational Research for R21 exploratory projects.

[6] = test system: mouse models of neurodegenerative diseases and ischemia/stroke; conditions: in vivo; cited from earlier work

## CCCC(=O)[O-].[Na+] [NaBt, sodium butyrate]
[1]
  NaBt concentration resulting in near maximal acetylation levels of nuclear proteins: 2 mM
[2]
  mitochondrial micro-architecture: increased numbers of elongated cristae
[3]
  mitochondrial mass, morphology, and networking: restored normal mitochondrial mass, morphology, and networking
[4]
  connectivity among mitochondria: rescue the connectivity among mitochondria
[5]; 30 genes, p<0.05
  increased expression of OXPHOS genes: ≥ 1.5 fold
[5]; NaBt
  nuclear genes significantly regulated: 5%
  off-target effects: limited off-target effects
[5]; NaBt-treated
  expression of nuclear genes involved in mitochondrial morphology and fusion-fission events: increased expression levels
  genes known to promote FAO: ten upregulated genes
[5]; subunits of complexes II, III, IV, V, p<0.05
  number of OXPHOS genes with increased expression: 30
[6]
  effects in mouse models: stimulates neurogenesis, enhances synaptic plasticity and memory, while preventing neuronal death
